Test results from ChEMBL document CHEMBL5727449, “Toll-like receptor 7 (TLR7) agonists having heteroatom-linked aromatic moieties, conjugates thereof, and methods and uses therefor” (2019).

molecular target: T1, Toll-like receptor 7 (Homo sapiens, UniProt Q9NYK1); test: HEK-Blue™ TLR7 cells were added to each well of a 384-well tissue-culture plate (15,000 cells per well) and incubated 16-18 h at 37° C., 5% CO2. Compounds (100 nl) were dispensed into wells containing the HEK-Blue™ TLR cells and the treated cells were incubated at 37° C., 5% CO2. After 18 h treatment ten microliters of freshly-prepared Quanti-Blue™ reagent (Invivogen) was added to each well, incubated for 30 min (37° C., 5% CO2) and SEAP levels measured using an Envision plate reader (OD=620 nm).
T1 sequence (Q9NYK1 whole entry): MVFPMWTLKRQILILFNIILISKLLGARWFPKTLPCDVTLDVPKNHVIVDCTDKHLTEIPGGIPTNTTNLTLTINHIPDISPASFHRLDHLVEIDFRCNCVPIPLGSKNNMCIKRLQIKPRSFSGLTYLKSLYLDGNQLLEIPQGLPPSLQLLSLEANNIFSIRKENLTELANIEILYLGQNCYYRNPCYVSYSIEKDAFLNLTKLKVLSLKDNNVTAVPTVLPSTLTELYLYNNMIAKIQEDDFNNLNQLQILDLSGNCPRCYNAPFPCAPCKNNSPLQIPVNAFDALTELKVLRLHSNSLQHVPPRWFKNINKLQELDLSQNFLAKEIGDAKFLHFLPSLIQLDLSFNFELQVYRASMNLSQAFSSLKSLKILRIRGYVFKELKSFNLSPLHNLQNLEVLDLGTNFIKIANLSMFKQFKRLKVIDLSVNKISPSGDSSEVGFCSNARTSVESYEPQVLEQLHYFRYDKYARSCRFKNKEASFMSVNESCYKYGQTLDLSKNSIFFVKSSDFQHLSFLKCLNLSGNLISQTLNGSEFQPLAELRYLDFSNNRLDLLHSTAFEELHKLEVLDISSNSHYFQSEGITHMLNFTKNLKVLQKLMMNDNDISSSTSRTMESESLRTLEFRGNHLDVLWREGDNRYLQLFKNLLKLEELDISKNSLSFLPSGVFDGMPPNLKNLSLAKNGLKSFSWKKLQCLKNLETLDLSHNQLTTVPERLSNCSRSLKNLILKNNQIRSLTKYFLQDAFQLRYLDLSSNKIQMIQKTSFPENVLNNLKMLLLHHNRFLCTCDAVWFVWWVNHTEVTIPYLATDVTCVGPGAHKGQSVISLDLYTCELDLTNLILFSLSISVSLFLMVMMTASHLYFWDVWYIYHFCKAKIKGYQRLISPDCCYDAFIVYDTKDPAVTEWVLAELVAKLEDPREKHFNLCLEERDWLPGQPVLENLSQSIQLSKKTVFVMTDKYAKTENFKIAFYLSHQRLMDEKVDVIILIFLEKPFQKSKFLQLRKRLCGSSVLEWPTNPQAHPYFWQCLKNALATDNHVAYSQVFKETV

`CCCCOc1nc(N)c2nc(O)n(Cc3cccc(Oc4cccc(CNC5CCC5)c4)c3)c2n1` and `CCCCOc1nc(N)c2nc(O)n(Cc3cccc(Oc4cccc(CNC5COC5)c4)c3)c2n1` are within 1.5-fold of each other in EC50: 435 nM for the first, 403 nM for the second.

Going from `CCCCOc1nc(N)c2nc(O)n(Cc3ccc(Oc4ccc(CN5CCC5)cc4)c(F)c3)c2n1` to `CCCCOc1nc(N)c2nc(O)n(Cc3ccc(Oc4ccc(CN5CCOCC5)cc4)c(F)c3)c2n1`, the EC50 rises from 1.12 nM to 3.9 nM (3.5-fold). The first is the more potent here.

`CCCCOc1nc(N)c2nc(O)n(Cc3ccc(Oc4ccc(CNCC(C)C)nc4)nc3)c2n1` and `CCCCOc1nc(N)c2nc(O)n(Cc3ccc(Oc4ccc(CNCC(F)F)nc4)nc3)c2n1` are within 1.5-fold of each other in EC50: 2.22 nM for the first, 1.8 nM for the second.

`CCCCOc1nc(N)c2nc(O)n(Cc3ccc(Oc4cccc(CNCC(C)C)n4)cc3)c2n1` and `CCCCOc1nc(N)c2nc(O)n(Cc3ccc(Oc4cccc(CNCCC#N)n4)cc3)c2n1` are within 1.5-fold of each other in EC50: 2.4 nM for the first, 3.57 nM for the second.

First: CCCCOc1nc(N)c2nc(O)n(Cc3ccc(Oc4ccc(CNCC(C)C)cc4)c(F)c3)c2n1
Second: CCCCOc1nc(N)c2nc(O)n(Cc3ccc(Oc4ccc(CNCC(F)F)cc4)c(F)c3)c2n1
The EC50 of the first is 4-fold lower: 0.45 nM for the first, 1.8 nM for the second. The first is the more potent here.

Going from `CCCCOc1nc(N)c2nc(O)n(Cc3ccc(Nc4ccc(CN5CCCC5)cc4)nc3)c2n1` to `CCCCOc1nc(N)c2nc(O)n(Cc3ccc(Nc4ccc(CN5CCN(C)CC5)cc4)nc3)c2n1`, the EC50 rises from 1.56 nM to 4.2 nM (2.7-fold).

Going from `CCCCOc1nc(N)c2nc(O)n(Cc3ccc(Oc4ccc(CO)cc4)nc3)c2n1` to `CCCCOc1nc(N)c2nc(O)n(Cc3ccc(Oc4ccc(CNC)cc4)nc3)c2n1`, the EC50 falls from 12 nM to 1.2 nM (10-fold).

First: CCCCOc1nc(N)c2nc(O)n(Cc3ccc(Oc4ccc(CNC5CCOCC5)nc4)nc3)c2n1
Second: CCCCOc1nc(N)c2nc(O)n(Cc3ccc(Oc4ccc(CNC5CCC5)nc4)nc3)c2n1
The EC50 of the first is 1.8-fold lower: 1.12 nM for the first, 2.07 nM for the second. The first is the more potent here.

`CCCCOc1nc(N)c2nc(O)n(Cc3ccc(Oc4ccc(CNC5CCOCC5)cc4)c(F)c3)c2n1` and `CCCCOc1nc(N)c2nc(O)n(Cc3ccc(Oc4ccc(CNC5CCC5)cc4)c(F)c3)c2n1` are within 1.5-fold of each other in EC50: 1.2 nM for the first, 1.38 nM for the second.

First: CCCCOc1nc(N)c2nc(O)n(Cc3ccc(Oc4ccc(CNCCC#N)cc4)nc3)c2n1
Second: CCCCOc1nc(N)c2nc(O)n(Cc3ccc(Oc4ccc(CNCCS(C)(=O)=O)cc4)nc3)c2n1
The EC50 of the first is 5.1-fold lower: 0.35 nM for the first, 1.8 nM for the second.

Compared with `CCCCOc1nc(N)c2nc(O)n(Cc3ccc(Oc4ccc(CNCCOC)cc4)c(F)c3)c2n1`, `CCCCOc1nc(N)c2nc(O)n(Cc3ccc(Oc4ccc(CNCCO)cc4)c(F)c3)c2n1` is 2.5-fold lower in EC50: 1.14 nM for the first, 0.46 nM for the second. The second is the more potent here.

Going from `CCCCOc1nc(N)c2nc(O)n(Cc3ccc(Oc4ccc(CNCCO)nc4)nc3)c2n1` to `CCCCOc1nc(N)c2nc(O)n(Cc3ccc(Oc4ccc(CNCCOC)nc4)nc3)c2n1`, the EC50 falls from 1.6 nM to 0.96 nM (1.7-fold).

First: CCCCOc1nc(N)c2nc(O)n(Cc3ccc(Oc4ccc(CNC5CCC5)cc4)nc3)c2n1
Second: CCCCOc1nc(N)c2nc(O)n(Cc3ccc(Oc4ccc(CNC5CCCC5)cc4)nc3)c2n1
The EC50 of the first is 1.8-fold lower: 0.91 nM for the first, 1.6 nM for the second. The first is the more potent here.

Compared with `CCCCOc1nc(N)c2nc(O)n(Cc3ccc(Oc4ccc(CN5CCN(C)CC5)nc4)nc3)c2n1`, `CCCCOc1nc(N)c2nc(O)n(Cc3ccc(Oc4ccc(CN5CCOCC5)nc4)nc3)c2n1` is 2-fold lower in EC50: 1.77 nM for the first, 0.89 nM for the second.

Going from `CCCCOc1nc(N)c2nc(O)n(Cc3ccc(Oc4ccc(CNCC(F)F)cc4)nc3)c2n1` to `CCCCOc1nc(N)c2nc(O)n(Cc3ccc(Oc4ccc(CNCC(C)C)cc4)nc3)c2n1`, the EC50 falls from 2.9 nM to 0.54 nM (5.4-fold). The second is the more potent here.

`CCCCOc1nc(N)c2nc(O)n(Cc3cccc(Oc4cccc(CNC)c4)c3)c2n1` and `CCCCOc1nc(N)c2nc(O)n(Cc3cccc(Oc4cccc(CNCCO)c4)c3)c2n1` are within 1.5-fold of each other in EC50: 455 nM for the first, 375 nM for the second.

Going from `CCCCOc1nc(N)c2nc(O)n(Cc3cccc(Oc4cccc(CNCCC#N)c4)c3)c2n1` to `CCCCOc1nc(N)c2nc(O)n(Cc3cccc(Oc4cccc(CNCCS(C)(=O)=O)c4)c3)c2n1`, the EC50 falls from 279 nM to 154 nM (1.8-fold).

First: CCCCOc1nc(N)c2nc(O)n(Cc3ccc(Oc4ccc(CNCc5ccccc5)cc4)cc3)c2n1
Second: CCCCOc1nc(N)c2nc(O)n(Cc3ccc(Oc4ccc(CNCc5ccccc5)cc4)nc3)c2n1
The EC50 of the first is 2.5-fold higher: 13 nM for the first, 5.3 nM for the second. The second is the more potent here.

Compared with `CCCCOc1nc(N)c2nc(O)n(Cc3cccc(Oc4cccc(CN5CCNCC5)c4)c3)c2n1`, `CCCCOc1nc(N)c2nc(O)n(Cc3cccc(Oc4cccc(CNC5CC(F)(F)C5)c4)c3)c2n1` is 1.8-fold lower in EC50: 942 nM for the first, 525 nM for the second.

`CCCCOc1nc(N)c2nc(O)n(Cc3ccc(Nc4ccc(CNCC(F)F)cc4)nc3)c2n1` and `CCCCOc1nc(N)c2nc(O)n(Cc3ccc(Nc4ccc(CNCC(C)C)cc4)nc3)c2n1` are within 1.5-fold of each other in EC50: 7.46 nM for the first, 7.5 nM for the second.

`CCCCOc1nc(N)c2nc(O)n(Cc3ccc(Oc4ccc(CN5CCN(C)CC5)cc4)c(F)c3)c2n1` and `CCCCOc1nc(N)c2nc(O)n(Cc3ccc(Oc4ccc(CNC5CC5)cc4)cc3)c2n1` are within 1.5-fold of each other in EC50: 2.9 nM for the first, 2.1 nM for the second.

Compared with `CCCCOc1nc(N)c2nc(O)n(Cc3ccc(Nc4ccc(CNCCO)cc4)nc3)c2n1`, `CCCCOc1nc(N)c2nc(O)n(Cc3ccc(Nc4ccc(CNCCOC)cc4)nc3)c2n1` is 4.9-fold lower in EC50: 5.8 nM for the first, 1.19 nM for the second.

First: CCCCOc1nc(N)c2nc(O)n(Cc3ccc(Oc4ccc(CNC5COC5)cc4)nc3)c2n1
Second: CCCCOc1nc(N)c2nc(O)n(Cc3ccc(Oc4ccc(CNC5CC(F)(F)C5)cc4)nc3)c2n1
The EC50 of the first is 1.9-fold lower: 0.7 nM for the first, 1.3 nM for the second.

Compared with `CCCCOc1nc(N)c2nc(O)n(Cc3ccc(Oc4ccc(CNC5COC5)cc4)cc3)c2n1`, `CCCCOc1nc(N)c2nc(O)n(Cc3ccc(Oc4ccc(CNC5CCC5)cc4)cc3)c2n1` is 1.5-fold higher in EC50: 1.7 nM for the first, 2.6 nM for the second. The first is the more potent here.

Going from `CCCCOc1nc(N)c2nc(O)n(Cc3ccc(Nc4ccc(CNCCS(C)(=O)=O)cc4)nc3)c2n1` to `CCCCOc1nc(N)c2nc(O)n(Cc3ccc(Nc4ccc(CNCC(C)(C)O)cc4)nc3)c2n1`, the EC50 rises from 0.374 nM to 3.2 nM (8.6-fold). The first is the more potent here.

Going from `CCCCOc1nc(N)c2nc(O)n(Cc3ccc(Oc4cccc(CNC5CCC5)n4)cc3)c2n1` to `CCCCOc1nc(N)c2nc(O)n(Cc3ccc(Oc4cccc(CNC5COC5)n4)cc3)c2n1`, the EC50 rises from 2.51 nM to 4.27 nM (1.7-fold).

`CCCCOc1nc(N)c2nc(O)n(Cc3ccc(Oc4ccc(CNC(C)C)cc4)nc3)c2n1` and `CCCCOc1nc(N)c2nc(O)n(Cc3ccc(Oc4ccc(CNCC5CC5)cc4)nc3)c2n1` are the same in EC50: 1.1 nM for the first, 1.1 nM for the second.

`CCCCOc1nc(N)c2nc(O)n(Cc3ccc(Oc4ccc(CNCCO)cc4)cc3)c2n1` and `CCCCOc1nc(N)c2nc(O)n(Cc3ccc(Oc4ccc(CNC5C6CC5C6)cc4)nc3)c2n1` (stereo not drawn) are within 1.5-fold of each other in EC50: 1.4 nM for the first, 1.3 nM for the second.

Compared with `CCCCOc1nc(N)c2nc(O)n(Cc3ccc(Nc4ccc(CNC5CCC5)cc4)nc3)c2n1`, `CCCCOc1nc(N)c2nc(O)n(Cc3ccc(Nc4ccc(CNC5CCOCC5)cc4)nc3)c2n1` is 3.5-fold higher in EC50: 1.23 nM for the first, 4.3 nM for the second. The first is the more potent here.
